Experiments:
human liver organoids = test: Long-term expansion (passaging) of human liver organoids; type: cell-based
Procedure: Human liver cells isolated by collagenase dissociation were dissociated to single cell, counted and 3000 or 10000 cells were seeded per well in a 48 well plate. Mouse liver culture medium (ERFHNic) or medium supplemented with A8301 or A8301 and BMP7 or A8301 and BMP7 and Forskolin (FSK) was overlaid as indicated and organoids were allowed to grow. The cultures were split every week 7-10 days at a ratio of 1:4-1:6 dilution.
Human liver organoids were seeded in mouse medium supplemented with A8301 and with one of the CAMP activators as indicated in FIG. 4. Cholera toxin was used at a concentration of 100 ng/ml. Only the cultures that were treated with CAMP activators were able to be expanded >2 months (P8).
Liver cells were isolated by collagenase digestion as follows: tissue (0.5-1 cm^3) was minced, rinsed 2× with DMEM (Gibco) 1% FCS and incubated with the digestion solution (2.5 mg/ml collagenase D (Roche)+0.1 mg/ml DNase I (Sigma) in EBSS (Hyclone, Thermoscientific), for […] at 37° C. The digestion was stopped by adding cold DMEM 1% FCS and the suspension was then filtered through a 70 um Nylon cell strainer and spun 5 min at 300-400 g. The pellet was resuspended in DMEM 1% FCS and kept cold. Any material retained on the strainer was further digested for 10 min in Accutase (Innovative Cell Technologies) at 37° C. Then, the digestion was stopped and the cells were collected as before. The different fractions (collagenase and accutase) were mixed and washed with cold Advanced DMEM/F12 and spun at 300-400 g for 5 min. The cell pellet was mixed with Matrigel (BD bioscience) and 3000-10000 cells were seeded per well in a 48 well/plate. After Matrigel had solidified, culture medium was added. Culture media was based on AdDMEM/F12 (Invitrogen) supplemented with N2 and B27 without retinoic acid (both from Gibco), 1.25 mM N-Acetylcysteine (Sigma). 10 nM gastrin (Sigma) and the growth factors: 50 ng/ml EGF (Peprotech), 10% RSPO1 conditioned media (home-made), 100 ng/ml FGF10 (Peprotech). 25 ng/ml HGF, 10 mM Nicotinamide (Sigma), 5 uM TGF-beta inhibitor (A83.01 (Tocris)) and 10 uM FSK (Tocris). For the establishment of the culture, the first 3 days after isolation the medium was supplemented with 25 ng/ml Noggin (Peprotech), 30% Wnt CM (home-made prepared as described in (Barker and Huch 2010)), 10 uM Rock inhibitor (Y27632) and hES Cell cloning Recovery solution (Stemgent). Then, the medium was changed into a medium without Noggin, Wnt. Y27632, hES Cell cloning Recovery solution (Stemgent) while 25 ng/ml BMP7 (Peprotech) were supplemented on top. One week-10 days organoids were removed from the Matrigel, mechanically dissociated into small fragments, and transferred to fresh Matrigel. Passage was performed in 1:4-1:8 split ratio once per week for at least 6 months. […]

cAMP pathway = conditions: compared with 8-BR-cAMP and forskolin; cited from earlier work
[1] = system: Lgr5 cells in human liver cultures; test: Flow cytometry analysis of LGR5 positive cells; type: cell-based; conditions: cultured >4 weeks in the presence of FSK; not readily detected in absence; 2 donor cultures
Procedure: (§1) Lgr5 expression was analysed in cultures grown in our defined culture medium by immunofluorescence and flow cytometry analysis. (FIG. 5A) Confocal image of a human liver organoid showing that the organoids are formed by epithelial derived cells positive for EPCAM (blue). The stem cell marker Lgr5 (green) was restricted to a subset of cells within the organoid, while the Wnt target gene EPHB2 (red) was broadly expressed, but colocalized with LGR5 as expected. Staining was performed on single cells isolated from a culture that had been cultured for >4 weeks in the presence or absence of FSK. Only in the presence of FSK Lgr5 cells could be readily detected as a 1-3% of the culture population. Experiment was performed in 2 independent human liver donor cultures. (FIG. 5C) qPCR analysis of the expression of LGR5 in 4 week old cultures treated in the presence or absence of FSK.
Exponentially growing organoids were cultured for at least 5 days in the presence or absence of FSK. Then, organoids were dissociated into single cells using Accutase, resuspended in DMEM+2% FBS and incubated with Lgr5 antibody (AP2745d, Abgent) for 45 min. […] Cells were analyzed with a BD FACS Calibur (Becton-Dickinson); FSC: propidium iodide was used to label dead cells for exclusion and pulse-width gating to exclude cell doublets.

[2] = system: LGR5 expression in human liver cultures; test: qPCR analysis of LGR5 expression; type: cell-based; conditions: 4 week old cultures, presence vs absence of FSK
Procedure: as §1

[3] = system: human liver organoid cultures (ALB, CYP3A4 expression); conditions: hepatocytes
[4] = culture medium supplemented with A8301 combined with FSK, split ratio 1:4-1:6 every 7-10 days

## Cc1cccc(-c2nn(C(=S)Nc3ccccc3)cc2-c2ccnc3ccccc23)n1 [A83-01, 3-(6-Methyl-2-pyridinyl)-N-phenyl-4-(4-quinolinyl)-1H-pyrazole-1-carbothioamide]
Human liver organoids; medium supplemented with A8301 only (no FSK)
  long-term expansion outcome: arrested proliferation after some weeks in culture

## C=C[C@@]1(C)CC(=O)[C@]2(O)[C@@]3(C)[C@@H](O)CCC(C)(C)[C@@H]3[C@H](OC(=O)CCN(C)C)[C@H](OC(C)=O)[C@@]2(C)O1.Cl [NKH477]
cAMP pathway
  relative potency as cAMP pathway activator: generally more potent than 8-BR-CAMP and forskolin

## C=C[C@@]1(C)CC(=O)[C@]2(O)[C@@]3(C)[C@@H](O)CCC(C)(C)[C@@H]3[C@H](O)[C@H](OC(C)=O)[C@@]2(C)O1 [FSK, forskolin]
Human liver organoids; [4]
  number of passages the cultures were able to grow: > 18 passages
  time the cultures were able to grow: > 5 months
[1]
  Lgr5 cells as % of the culture population: 1-3%
[2]
  LGR5 expression levels, upregulation upon treatment: 2-3 ×

B1: BMP7: BMP pathway activator; induces the phosphorylation of SMAD1 and SMAD5 (protein, UniProt P18075 293-431, looked up)
Bone morphogenetic protein 7: STGSKQRSQNRSKTPKNQEALRMANVAENSSSDQRQACKKHELYVSFRDLGWQDWIIAPEGYAAYYCEGECAFPLNSYMNATNHAIVQTLVHFINPETVPKPCCAPTQLNAISVLYFDDSSNVILKKYRNMVVRACGCH
Human liver organoids; medium supplemented with BMP7 and A8301 (no FSK)
  long-term expansion outcome: arrested proliferation after some weeks in culture
[3]
  effect on expression of hepatocyte markers ALB and CYP3A4: slightly facilitated the expression of hepatocyte markers ALB and CYP3A4
